# From patent US20260248783A1 (ASCLETIS BIOSCIENCE CO., LTD., priority 2021, published 2026)
# Molecular target: T1, PD-1/PD-L1 (Homo sapiens, UniProt Q9NZQ7)
# T1 construct: Recombinant human PD-L1 protein (19-238) with a Histag at the C-terminus; purchased AcroBiosystems PD1-H5229 (PD-L1); PD1-H5257 (PD-1)
# Assay: PD-1/PD-L1 Homogeneous Time-Resolved Fluorescence (HTRF) Binding Assay
# Details: PD-1/PD-L1 HTRF activity; 3 nM PD1, 10 nM PD-L1, 25° C.
# Description: Example 107. PD-1/PD-L1 Homogeneous Time-Resolved Fluorescence (HTRF) Binding Assay
# The assays were conducted in a standard black 384-well polystyrene plate with a final volume of 20 μL. Inhibitors were first serially diluted in DMSO and then added to the plate wells before the addition of other reaction components. The final concentration of DMSO in the assay was 1%. The assays were carried out at 25° C. in the PBS buffer (pH 7.4) with 0.05% Tween-20 and 0.1% BSA. Recombinant human PD-L1 protein (19-238) with a Histag at the C-terminus was purchased from AcroBiosystems (PD1-H5229). Recombinant human PD-1 protein (25-167) with Fe tag at the C-terminus was also purchased from AcroBiosystems (PD1-H5257). PD-L1 and PD-1 proteins were diluted in the assay buffer and 10 μL was added to the plate well. Plates were centrifuged and proteins were preincubated with inhibitors for 40 minutes. The incubation was followed by the addition of 10 μL of HTRF detection buffer supplemented with Europium cryptate-labeled anti-human IgG (PerkinElmer-AD0212) specific for Fe and anti-His antibody conjugated to SureLight®—Allophycocyanin (APC, PerkinElmer-AD0059H). After centrifugation, the plate was incubated at 25° C. for 60 min. before reading on a PHERAstar FS plate reader (665 nm/620 nm ratio). Final concentrations in the assay were […], 10 nM PD-L1, 1 nM europium anti-human IgG and 20 nM anti-His-Allophycocyanin. IC50 determination was performed by fitting the curve of percent control activity versus the log of the inhibitor concentration.
# T1 sequence (Q9NZQ7 19-238): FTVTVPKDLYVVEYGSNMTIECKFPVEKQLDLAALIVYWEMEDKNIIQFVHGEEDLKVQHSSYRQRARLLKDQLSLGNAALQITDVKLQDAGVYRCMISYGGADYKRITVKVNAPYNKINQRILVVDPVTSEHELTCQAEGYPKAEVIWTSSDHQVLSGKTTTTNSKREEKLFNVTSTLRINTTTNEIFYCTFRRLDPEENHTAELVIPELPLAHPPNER
row,SMILES,IC50 [µM]
1,"Cn1c(-c2cccc(-c3cccc(-c4nc5c(=O)n(C[C@@H]6CCC(=O)N6)ccc5n4C)c3Cl)c2Cl)nc2c(=O)n(C[C@@H]3CCC(=O)N3)ccc21 [Compound 6, 2,2′-(2,2′-dichloro-[1,1′-biphenyl]-3,3′-diyl)bis(1-methyl-5-(((S)-5-oxopyrrolidin-2-yl)methyl)-1,5-dihydro-4H-imidazo[4,5-c]pyridin-4-one)]",≥ 0.1
2,Cc1cn2nc(-c3cccc(-c4cccc(-c5cc6c(=O)n(C[C@@H]7CCC(=O)N7)c(C)cn6n5)c4Cl)c3Cl)cc2c(=O)n1C[C@@H]1CCC(=O)N1 [Compound 29],< 0.01
3,"Cc1c(-c2cc3c(=O)n(C[C@@H]4CCC(=O)N4)cnn3c2)cccc1-c1cccc(-c2cc3c(=O)n(C[C@@H]4CCC(=O)N4)cnn3c2)c1C [Compound 17, 6,6′-(2,2′-dimethyl-[1,1′-biphenyl]-3,3′-diyl)bis(3-(((S)-5-oxopyrrolidin-2-yl)methyl)pyrrolo[2,1-f][1,2,4]triazin-4(3H)-one)]",< 0.01
4,"O=C1CCC(Cn2cc(F)n3cc(-c4cccc(-c5cccc(-c6cc7c(=O)n(CC8CCC(=O)N8)cc(F)n7c6)c5Cl)c4Cl)cc3c2=O)N1 (stereo not drawn) [Compound 16, 7,7′-(2,2′-dichloro-[1,1′-biphenyl]-3,3′-diyl)bis(4-fluoro-2-((5-oxopyrrolidin-2-yl)methyl)pyrrolo[1,2-a]pyrazin-1(2H)-one)]",0.01 to 0.1
5,"O=C1CC[C@@H](Cn2ccn3nc(-c4cccc(-c5cccc(-c6cc7c(=O)n(C[C@@H]8CCC(=O)N8)ccn7n6)c5Cl)c4Cl)cc3c2=O)N1 [Compound 7, 2,2′-(2,2′-dichloro-[1,1′-biphenyl]-3,3′-diyl)bis(5-(((S)-5-oxopyrrolidin-2-yl)methyl)pyrazolo[1,5-a]pyrazin-4(5H)-one)]",< 0.01
6,"O=C(O)CCC(O)Cn1cnn2cc(-c3cccc(-c4cccc(-c5cc6c(=O)n(CC(O)CCC(=O)O)cnn6c5)c4Cl)c3Cl)cc2c1=O (stereo not drawn) [Compound 28, 5,5′-((2,2′-dichloro-[1,1′-biphenyl]-3,3′-diyl)bis(4-oxopyrrolo[2,1-f][1,2,4]triazine-6,3(4H)-diyl))bis(4-hydroxypentanoic acid)]",≥ 0.1
7,"CC(=O)NCCNCc1cn2cc(-c3cccc(-c4cccc(-c5cc6c(=O)n(C)c(CNCCNC(C)=O)cn6c5)c4Cl)c3Cl)cc2c(=O)n1C [Compound 44, N,N′-(((((2,2′-dichloro-[1,1′-biphenyl]-3,3′-diyl)bis(2-methyl-1-oxo-1,2-dihydropyrrolo[1,2-a]pyrazine-7,3-diyl))bis(methylene))bis(azanediyl))bis(ethane-2,1-diyl))diacetamide]",0.01 to 0.1
8,"Cn1c(CN2CC[C@H](C(=O)O)C2)cn2nc(-c3cccc(-c4cccc(-c5cc6c(=O)n(C)c(CN7CC[C@H](C(=O)O)C7)cn6n5)c4Cl)c3Cl)cc2c1=O [Compound 41, (3S,3'S)-1,1′-(((2,2′-dichloro-[1,1′-biphenyl]-3,3′-diyl)bis(5-methyl-4-oxo-4,5-dihydropyrazolo[1,5-a]pyrazine-2,6-diyl))bis(methylene))bis(pyrrolidine-3-carboxylic acid)]",0.01 to 0.1
9,"O=C1CC[C@@H](Cn2cnc3sc(-c4cccc(-c5cccc(-c6cc7c(=O)n(C[C@@H]8CCC(=O)N8)cnc7s6)c5Cl)c4Cl)cc3c2=O)N1 [Compound 2, 6,6′-(2,2′-dichloro-[1,1′-biphenyl]-3,3′-diyl)bis(3-(((S)-5-oxopyrrolidin-2-yl)methyl)thieno[2,3-d]pyrimidin-4(3H)-one)]",0.01 to 0.1
10,"Cc1cn2cc(-c3cccc(-c4cccc(-c5cc6c(=O)n(CCNCC7CCCN7)c(C)cn6c5)c4Cl)c3Cl)cc2c(=O)n1CCNCC1CCCN1 (stereo not drawn) [Compound 55, 7,7′-(2,2′-dichloro-[1,1′-biphenyl]-3,3′-diyl)bis(3-methyl-2-(2-((pyrrolidin-2-ylmethyl)amino)ethyl)pyrrolo[1,2-a]pyrazin-1(2H)-one)]",≥ 0.1
11,"CN1CCN(CCn2cnn3cc(-c4cccc(-c5cccc(-c6cc7c(=O)n(CCN8CCN(C)CC8)cnn7c6)c5Cl)c4Cl)cc3c2=O)CC1 [Compound 26, 6,6′-(2,2′-dichloro-[1,1′-biphenyl]-3,3′-diyl)bis(3-(2-(4-methylpiperazin-1-yl)ethyl)pyrrolo[2,1-f][1,2,4]triazin-4(3H)-one)]",≥ 0.1
12,"Cc1cn2nc(-c3cccc(-c4cccc(-c5cc6c(=O)n(CCN[C@@H](CCO)C(=O)O)c(C)cn6n5)c4Cl)c3Cl)cc2c(=O)n1CCN[C@@H](CCO)C(=O)O [Compound 62, (2S,2'S)-2,2′-((((2,2′-dichloro-[1,1′-biphenyl]-3,3′-diyl)bis(6-methyl-4-oxopyrazolo[1,5-a]pyrazine-2,5(4H)-diyl))bis(ethane-2,1-diyl))bis(azanediyl))bis(4-hydroxybutanoic acid)]",0.01 to 0.1
13,"O=C1CC[C@@H](Cn2ccn3cc(-c4cccc(-c5cccc(-c6cn7ccn(C[C@@H]8CCC(=O)N8)c(=O)c7n6)c5Cl)c4Cl)nc3c2=O)N1 [Compound 12, 2,2′-(2,2′-dichloro-[1,1′-biphenyl]-3,3′-diyl)bis(7-(((S)-5-oxopyrrolidin-2-yl)methyl)imidazo[1,2-a]pyrazin-8(7H)-one)]",0.01 to 0.1
14,"Cn1c(-c2cccc(-c3cccc(-c4cc5ncn(C[C@@H]6CCC(=O)N6)c(=O)c5n4C)c3Cl)c2Cl)cc2ncn(C[C@@H]3CCC(=O)N3)c(=O)c21 [Compound 4, 6,6′-(2,2′-dichloro-[1,1′-biphenyl]-3,3′-diyl)bis(5-methyl-3-(((S)-5-oxopyrrolidin-2-yl)methyl)-3,5-dihydro-4H-pyrrolo[3,2-d]pyrimidin-4-one)]",≥ 0.1

# Next, values leading:
row,IC50 [µM],SMILES
1,0.01 to 0.1,"Cc1cn2nc(-c3cccc(-c4cccc(-c5cc6c(=O)n(CCN7CCCC7CCO)c(C)cn6n5)c4Cl)c3Cl)cc2c(=O)n1CCN1CCCC1CCO (stereo not drawn) [Compound 93, 2,2′-(2,2′-dichloro-[1,1′-biphenyl]-3,3′-diyl)bis(5-(2-(2-(2-hydroxyethyl)pyrrolidin-1-yl)ethyl)-6-methylpyrazolo[1,5-a]pyrazin-4(5H)-one)]"
2,0.01 to 0.1,"Cc1nn2cc(-c3cccc(-c4cccc(-c5cc6c(=O)n(CCN[C@@H](CO)C(=O)O)c(C)nn6c5)c4Cl)c3Cl)cc2c(=O)n1CCN[C@@H](CO)C(=O)O [Compound 64, (2S,2'S)-2,2′-((((2,2′-dichloro-[1,1′-biphenyl]-3,3′-diyl)bis(2-methyl-4-oxopyrrolo[2,1-f][1,2,4]triazine-6,3(4H)-diyl))bis(ethane-2,1-diyl))bis(azanediyl))bis(3-hydroxypropanoic acid)]"
3,0.01 to 0.1,"CC(=O)NCCNCc1cn2cc(-c3cccc(-c4cccc(-c5cc6c(=O)n(C[C@@H]7CCC(=O)N7)c(CNCCNC(C)=O)cn6c5)c4Cl)c3Cl)cc2c(=O)n1C[C@@H]1CCC(=O)N1 [Compound 73, N,N′-(((((2,2′-dichloro-[1,1′-biphenyl]-3,3′-diyl)bis(1-oxo-2-(((S)-5-oxopyrrolidin-2-yl)methyl)-1,2-dihydropyrrolo[1,2-a]pyrazine-7,3-diyl))bis(methylene))bis(azanediyl))bis(ethane-2,1-diyl))diacetamide]"
4,0.01 to 0.1,"CCc1nn2cc(-c3cccc(-c4cccc(-c5cc6c(=O)n(CCN[C@@H](CO)C(=O)O)c(CC)nn6c5)c4Cl)c3Cl)cc2c(=O)n1CCN[C@@H](CO)C(=O)O [Compound 65, (2S,2'S)-2,2′-((((2,2′-dichloro-[1,1′-biphenyl]-3,3′-diyl)bis(2-ethyl-4-oxopyrrolo[2,1-f][1,2,4]triazine-6,3(4H)-diyl))bis(ethane-2,1-diyl))bis(azanediyl))bis(3-hydroxypropanoic acid)]"
5,0.01 to 0.1,"CC(=O)NCCNCc1cn2cc(-c3cccc(-c4cccc(-c5cc6c(=O)[nH]c(CNCCNC(C)=O)cn6c5)c4Cl)c3Cl)cc2c(=O)[nH]1 [Compound 72, N,N′-(((((2,2′-dichloro-[1,1′-biphenyl]-3,3′-diyl)bis(1-oxo-1,2-dihydropyrrolo[1,2-a]pyrazine-7,3-diyl))bis(methylene))bis(azanediyl))bis(ethane-2,1-diyl))diacetamide]"
6,≥ 0.1,"Cc1cn2nc(-c3cccc(-c4cccc(-c5cc6c(=O)n(CCN[C@@H](CN)C(=O)O)c(C)cn6n5)c4Cl)c3Cl)cc2c(=O)n1CCNC(CN)C(=O)O (stereo in doubt) [Compound 67, (2S,2'S)-2,2′-((((2,2′-dichloro-[1,1′-biphenyl]-3,3′-diyl)bis(6-methyl-4-oxopyrazolo[1,5-a]pyrazine-2,5(4H)-diyl))bis(ethane-2,1-diyl))bis(azanediyl))bis(3-aminopropanoic acid)]"
7,0.01 to 0.1,"CC(=O)NC[C@H](NCCn1c(C)cn2nc(-c3cccc(-c4cccc(-c5cc6c(=O)n(CCN[C@@H](CNC(C)=O)C(=O)O)c(C)cn6n5)c4Cl)c3Cl)cc2c1=O)C(=O)O [Compound 68, (2S,2'S)-2,2′-((((2,2′-dichloro-[1,1′-biphenyl]-3,3′-diyl)bis(6-methyl-4-oxopyrazolo[1,5-a]pyrazine-2,5(4H)-diyl))bis(ethane-2,1-diyl))bis(azanediyl))bis(3-acetamidopropanoic acid)]"
